Source: the supplement of paper PMC10307832

Legend:
Assay in all cases: relative viability (nuclei count vs DMSO), 5 days (fraction); higher = more cells survive
[1] = compound: CC(C)C[C@@H](C(=O)N[C@H](C(=O)OC1CCCC1)c1ccccc1)[C@H](O)C(=O)NO [Tosedostat] + Nc1nc2[nH]cc(CCc3ccc(C(=O)N[C@@H](CCC(=O)O)C(=O)O)cc3)c2c(=O)[nH]1 [Pemetrexed] (partner 0.2 µM)
Method in brief: (§1)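 Lung cancer cell lines, seeded in 1536-well plates, were treated the following day by pin tool with a single drug or with five library-drug doses (not always all listed) in √10 steps on top of a fixed anchor-drug dose. Cells were fixed and nuclei stained in one step after 5 days, and nuclei were counted. Relative viability is the nuclei count for treated wells divided by that for vehicle wells, reported as medians of duplicate plates.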

[2] = compound: CC1=NN=C(O1)C2=NN=C(C=C2)N3CCC(CC3)OC4=C(C=CC(=C4)F)Cl + CC(=O)Nc1cccc(-n2c(=O)n(C3CC3)c(=O)c3c(Nc4ccc(I)cc4F)n(C)c(=O)c(C)c32)c1 [Trametinib] (partner 0.02 µM)
Method in brief: as §1

[3] = compound: CC1=NN=C(O1)C2=NN=C(C=C2)N3CCC(CC3)OC4=C(C=CC(=C4)F)Cl + COc1cc2c(Oc3ccc(NC(=O)C4(C(=O)Nc5ccc(F)cc5)CC4)cc3F)ccnc2cc1OCCCN1CCOCC1 [Foretinib] (partner 0.25 µM)
Method in brief: as §1

[4] = compound: CC1=NN=C(O1)C2=NN=C(C=C2)N3CCC(CC3)OC4=C(C=CC(=C4)F)Cl + Nc1nc2[nH]cc(CCc3ccc(C(=O)N[C@@H](CCC(=O)O)C(=O)O)cc3)c2c(=O)[nH]1 [Pemetrexed] (partner 0.2 µM)
Method in brief: as §1

Row | Cell Line | relative viability ([1]; first compound 0.02 µM) | relative viability ([1]; first compound 0.06325 µM) | relative viability ([1]; first compound 0.2 µM) | relative viability ([1]; first compound 0.6325 µM) | relative viability ([1]; first compound 2 µM) | relative viability ([2]; first compound 0.253 µM) | relative viability ([2]; first compound 0.8 µM) | relative viability ([2]; first compound 2.53 µM) | relative viability ([2]; first compound 8 µM) | relative viability ([3]; first compound 0.253 µM) | relative viability ([3]; first compound 0.8 µM) | relative viability ([3]; first compound 2.53 µM) | relative viability ([3]; first compound 8 µM) | relative viability ([4]; first compound 0.253 µM) | relative viability ([4]; first compound 0.8 µM) | relative viability ([4]; first compound 2.53 µM) | relative viability ([4]; first compound 8 µM)
1 | PC-3 [JPC-3] | 1.03 | 1.18 | 0.918 | 0.901 | 0.54 | 0.634 | 0.684 | 0.668 | 0.748 | 0.774 | 0.923 | 0.874 | 0.855 | 1.05 | 0.816 | 1.06 | 0.791
2 | COR-L23 | 0.2 | 0.214 | 0.202 | 0.194 | 0.172 | 0.498 | 0.396 | 0.529 | 0.444 | 0.901 | 0.836 | 0.869 | 0.672 | 0.179 | 0.193 | 0.176 | 0.181
3 | COR-L 105 | 1.16 | 0.915 | 1.01 | 0.857 | 0.894 | 0.488 | 0.424 | 0.414 | 0.429 | 0.994 | 1.06 | 1.12 | 1.08 | 1.2 | 1.07 | 1.18 | 1.29
4 | LK-2 | 0.244 | 0.249 | 0.348 | 0.274 | 0.374 | 0.728 | 0.732 | 0.867 | 0.828 | 1.11 | 1.05 | 1.45 | 1.5 | 0.318 | 0.256 | 0.377 | 0.255
5 | 201T | 0.336 | 0.335 | 0.393 | 0.355 | 0.307 | 0.414 | 0.425 | 0.405 | 0.384 | 0.607 | 0.758 | 0.661 | 0.73 | 0.314 | 0.255 | 0.316 | 0.339
6 | NCI-H838 | 0.275 | 0.254 | 0.255 | 0.299 | 0.29 | 0.406 | 0.429 | 0.478 | 0.428 | 0.887 | 0.83 | 0.868 | 0.88 | 0.235 | 0.251 | 0.215 | 0.23
7 | H3255 | 0.56 | 0.628 | 0.625 | 0.611 | 0.638 | 0.407 | 0.491 | 0.573 | 0.483 | 0.793 | 0.644 | 0.783 | 0.673 | 0.506 | 0.533 | 0.518 | 0.577
8 | PC-14 | 0.125 | 0.135 | 0.157 | 0.124 | 0.09 | 0.732 | 0.658 | 0.582 | 0.428 | 0.806 | 0.779 | 0.768 | 0.759 | 0.139 | 0.117 | 0.153 | 0.121
9 | NCI-H2228 | 0.328 | 0.32 | 0.317 | 0.338 | 0.256 | 0.373 | 0.41 | 0.548 | 0.612 | 0.723 | 0.66 | 0.845 | 0.632 | 0.28 | 0.333 | 0.3 | 0.363
